# From ChEMBL document CHEMBL1201862, “PubChem BioAssay data set” (2004)
# Calls of active or inactive are those of the source.
# Columns and labels:
# Leucine aminopeptidase = biological target: T1, Leucine aminopeptidase (Plasmodium falciparum 3D7, UniProt Q8IL11); experiment: P. falciparum M17LAP inhibitors, primary screen, biochemical, fluorogenic H-Leu-NHMec substrate, 1536-well (AID 1619); type: functional
# T1 sequence (Q8IL11 whole entry): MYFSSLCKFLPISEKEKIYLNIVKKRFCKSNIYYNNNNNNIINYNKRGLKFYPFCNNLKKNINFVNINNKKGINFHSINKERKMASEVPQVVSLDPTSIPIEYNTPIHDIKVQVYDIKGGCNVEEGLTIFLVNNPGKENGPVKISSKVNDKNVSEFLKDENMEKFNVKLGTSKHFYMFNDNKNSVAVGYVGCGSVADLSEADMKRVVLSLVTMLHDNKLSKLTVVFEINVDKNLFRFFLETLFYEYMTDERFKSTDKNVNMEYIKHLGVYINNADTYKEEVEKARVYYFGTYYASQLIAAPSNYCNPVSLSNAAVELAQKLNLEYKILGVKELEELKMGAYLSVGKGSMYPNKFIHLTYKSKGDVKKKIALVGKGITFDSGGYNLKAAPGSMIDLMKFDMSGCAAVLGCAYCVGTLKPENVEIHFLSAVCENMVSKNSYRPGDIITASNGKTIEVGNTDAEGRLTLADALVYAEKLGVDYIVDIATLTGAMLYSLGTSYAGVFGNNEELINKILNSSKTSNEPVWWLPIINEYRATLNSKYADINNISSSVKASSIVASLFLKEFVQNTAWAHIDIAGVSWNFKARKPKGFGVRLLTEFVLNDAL
# Streptokinase A = biological target: T2, Streptokinase A (Streptococcus pyogenes serotype M1, UniProt P10520); experiment: S. pyogenes streptokinase expression inhibitors, potency, dose response, plasminogen activation absorbance, OD405 (AID 1914); type: functional, Streptococcus pyogenes M1 GAS;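 note: secreted streptokinase activity via plasminogen activation per viability signal from cell pellet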
# T2 sequence (P10520 whole entry): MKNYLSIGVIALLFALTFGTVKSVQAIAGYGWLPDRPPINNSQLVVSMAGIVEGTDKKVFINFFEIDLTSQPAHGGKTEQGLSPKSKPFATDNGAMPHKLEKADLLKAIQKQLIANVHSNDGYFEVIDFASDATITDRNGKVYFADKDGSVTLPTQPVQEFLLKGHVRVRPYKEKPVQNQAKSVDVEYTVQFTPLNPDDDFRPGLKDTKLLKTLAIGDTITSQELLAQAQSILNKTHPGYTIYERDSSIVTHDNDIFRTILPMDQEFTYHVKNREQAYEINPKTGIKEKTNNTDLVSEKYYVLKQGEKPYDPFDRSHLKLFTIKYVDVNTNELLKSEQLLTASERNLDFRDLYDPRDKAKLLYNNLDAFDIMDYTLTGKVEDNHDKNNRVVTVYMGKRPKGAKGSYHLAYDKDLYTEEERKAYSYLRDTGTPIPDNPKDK
# Streptococcus = experiment: Group A Streptococcus viability loss, dose response, counter-screen for streptokinase expression inhibitor project, luminescence, BacTiterGlo (AID 1915); type: functional, organism-based;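 note: potency for reduction of bacterial viability or growth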
# [1] = test system: Streptococcus sp. 'group A'; experiment: growth inhibition of control SK(-) GAS strain, dose response, counter-screen for streptokinase expression inhibitor project, luminescence, kanamycin, BacTiterGlo, confirmation (AID 1900); type: functional, organism-based
# Cytochrome P450 3A4 [2] = biological target: T3, Cytochrome P450 3A4 (Homo sapiens, UniProt P08684); conditions: Potency
# [3] = biological target: T4, Short transient receptor potential channel 4 (Mus musculus, UniProt Q9QUQ5); experiment: mouse TRPC4 channel inhibitors, dose response, cell-based, HEK293 TRPC4/mu-opioid, Fluo-4 calcium (AID 434942); type: functional;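 note: potency of inhibitors blocking the TRPC4 calcium response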
# T4 sequence (Q9QUQ5 whole entry): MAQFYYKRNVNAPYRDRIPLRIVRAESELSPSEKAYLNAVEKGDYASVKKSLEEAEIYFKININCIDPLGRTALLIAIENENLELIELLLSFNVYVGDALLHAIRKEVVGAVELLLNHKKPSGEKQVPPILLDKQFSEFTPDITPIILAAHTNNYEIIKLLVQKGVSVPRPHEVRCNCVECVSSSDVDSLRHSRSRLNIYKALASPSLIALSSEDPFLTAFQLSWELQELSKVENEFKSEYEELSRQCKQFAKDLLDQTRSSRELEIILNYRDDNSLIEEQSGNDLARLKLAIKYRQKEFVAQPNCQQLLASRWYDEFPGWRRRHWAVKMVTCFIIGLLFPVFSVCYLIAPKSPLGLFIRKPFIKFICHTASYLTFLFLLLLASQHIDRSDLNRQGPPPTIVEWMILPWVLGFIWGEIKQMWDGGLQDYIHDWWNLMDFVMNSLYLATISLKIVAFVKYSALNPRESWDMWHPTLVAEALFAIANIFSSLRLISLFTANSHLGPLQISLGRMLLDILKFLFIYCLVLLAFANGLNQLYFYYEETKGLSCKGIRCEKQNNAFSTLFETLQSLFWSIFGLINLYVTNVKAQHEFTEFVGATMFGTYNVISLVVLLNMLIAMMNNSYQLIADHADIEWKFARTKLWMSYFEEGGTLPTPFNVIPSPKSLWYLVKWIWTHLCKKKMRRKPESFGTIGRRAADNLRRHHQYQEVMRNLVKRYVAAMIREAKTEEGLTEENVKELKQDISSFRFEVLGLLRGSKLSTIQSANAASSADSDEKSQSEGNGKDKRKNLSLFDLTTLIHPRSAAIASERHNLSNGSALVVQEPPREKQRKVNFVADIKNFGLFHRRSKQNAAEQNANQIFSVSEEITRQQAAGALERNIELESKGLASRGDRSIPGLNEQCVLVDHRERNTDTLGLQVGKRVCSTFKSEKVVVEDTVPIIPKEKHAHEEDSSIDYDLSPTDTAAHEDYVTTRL
# H9c2 = experiment: cells; type: functional, cell-based; conditions: Rattus norvegicus, H9c2, Myocardium;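 note: confirmatory concentration-response retest of ultra-high-throughput screening hits for modulation of myocardial damage; cell death induced by hydrogen peroxide oxidative stress; compound pretreatment for 60 min then peroxide exposure for 2 h; potency is for protecting the cells against peroxide damage rather than for killing them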
# [4] = inhibitors of firefly luciferase expression or activity, dose response, H4 neuroglioma cells, luminescence (AID 1990); type: functional, cell-based
# [5] = inhibitors of SNCA 5'UTR-driven reporter translation, confirmation, H4 neuroglioma cells, luminescence (AID 1988); type: functional, cell-based
# [6] = Luminescence Cell-Based Dose Response HTS to Identify Inhibitors of 5'UTR Stem-Loop Driven Prion Protein mRNA Translation in H4 Neuroglioblastoma Cells. [Related pubchem assays: 1827 (Project Summary), 1813 (Primary HTS)]; type: functional
# Cytochrome P450 3A4 [7] = biological target: T3, Cytochrome P450 3A4
# [8] = biological target: T5, Rac GTPase-activating protein 1 (Homo sapiens, UniProt Q9H0H5); experiment: MgcRacGAP GTPase-activating activity inhibitors, confirmation, biochemical, ADP Hunter fluorescence, primary and confirmatory (AID 624330); type: functional
# T5 sequence (Q9H0H5 whole entry): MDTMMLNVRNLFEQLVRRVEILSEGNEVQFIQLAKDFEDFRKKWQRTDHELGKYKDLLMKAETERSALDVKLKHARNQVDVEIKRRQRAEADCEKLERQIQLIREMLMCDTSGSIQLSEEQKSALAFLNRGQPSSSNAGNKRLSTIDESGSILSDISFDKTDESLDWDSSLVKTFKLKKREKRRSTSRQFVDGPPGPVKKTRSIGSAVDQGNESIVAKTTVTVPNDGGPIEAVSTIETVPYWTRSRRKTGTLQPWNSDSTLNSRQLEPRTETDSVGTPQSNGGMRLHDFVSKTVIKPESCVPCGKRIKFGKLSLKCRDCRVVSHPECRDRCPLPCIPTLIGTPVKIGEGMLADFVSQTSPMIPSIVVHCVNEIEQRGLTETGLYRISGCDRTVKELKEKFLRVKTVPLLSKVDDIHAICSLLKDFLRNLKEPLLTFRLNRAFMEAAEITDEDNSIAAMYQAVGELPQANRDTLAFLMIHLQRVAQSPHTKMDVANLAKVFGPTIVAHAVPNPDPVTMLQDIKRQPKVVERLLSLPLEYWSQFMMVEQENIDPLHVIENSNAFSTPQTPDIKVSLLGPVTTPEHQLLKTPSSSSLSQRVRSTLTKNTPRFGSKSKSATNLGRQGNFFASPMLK
# T3 sequence (P08684 whole entry): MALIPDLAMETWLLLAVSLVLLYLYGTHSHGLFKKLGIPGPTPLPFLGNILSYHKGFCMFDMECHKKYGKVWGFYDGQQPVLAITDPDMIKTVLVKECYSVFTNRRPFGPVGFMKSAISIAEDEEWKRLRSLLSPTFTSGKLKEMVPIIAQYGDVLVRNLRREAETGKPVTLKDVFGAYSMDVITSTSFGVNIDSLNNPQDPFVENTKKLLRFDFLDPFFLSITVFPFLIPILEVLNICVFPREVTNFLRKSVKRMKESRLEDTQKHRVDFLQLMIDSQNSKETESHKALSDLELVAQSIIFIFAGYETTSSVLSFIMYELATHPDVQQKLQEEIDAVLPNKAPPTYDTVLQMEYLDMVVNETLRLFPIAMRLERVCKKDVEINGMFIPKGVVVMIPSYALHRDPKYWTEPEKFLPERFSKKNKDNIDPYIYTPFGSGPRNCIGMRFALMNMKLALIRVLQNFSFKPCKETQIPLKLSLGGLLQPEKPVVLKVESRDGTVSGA
smiles,measurement,setting,value
O=C(NC(=S)NNC(=O)c1ccc(Cl)cc1Cl)c1cccnc1,IC50,Leucine aminopeptidase,49.6 µM (active)
same,EC50,Streptokinase A,> 150 µM (not active)
same,EC50,Streptococcus,96.5 µM (active)
same,EC50,[1],5.27 µM (active)
COCCN(CCOC)c1nc(C)nc2c1nc(-c1ccccc1)n2CCCN(C)C,AC50,Cytochrome P450 3A4 [2],7.94 µM (inconclusive)
O=C(Nc1ccccc1)N1CCN2C(=O)c3ccccc3C12c1ccccc1 (configuration not stated),EC50,[3],2.11 µM (active)
Cc1sc2nc(SCC(=O)N3CCCC3)nc(O)c2c1C,IC50,H9c2,> 79 µM (inactive)
N#C/C(=C\c1cn(-c2ccccc2)nc1-c1cccnc1)c1nnc2n1CCCCC2,IC50,H9c2,15.8 µM (active)
Cc1nc2c3cc(Cl)ccc3n(CCN3CCCCC3)c2s1,EC50,[3],4.22 µM (active)
CCOC(=O)C1CCN(c2cc3c(cc2NC(=O)c2ccccc2)n(C)c(=O)n3C)CC1,IC50,H9c2,> 79 µM (inactive)
COc1ccc(Br)cc1CNC(C)c1ccccc1 (configuration not stated),EC50,[3],5.31 µM (active)
CC1(C)C(O)CC(O)[C@]2(C)C1CC(O)[C@]1(C)C2CC[C@@]2(C)C(c3ccoc3)CC3OC312 (some centres not stated),AC50,Cytochrome P450 3A4 [2],3.16 µM (inconclusive)
COc1ccc(NC(=O)c2cccc(N3C(=O)C4CC=C(C)CC4C3=O)c2)c(OC)c1 (configuration not stated),EC50,[3],0.0173 µM (active)
O=C(O[C@@H]1Cc2c(O)cc(O)cc2OC1c1ccc(O)c(O)c1)c1cc(O)c(O)c(O)c1 (some centres not stated),AC50,Cytochrome P450 3A4 [2],25.1 µM (inconclusive)
CCOC(=O)c1c(NC(=O)C2C3C=CC(C3)C2C(=O)O)sc2c1CC(C)CC2 (configuration not stated),IC50,Leucine aminopeptidase,10.1 µM (active)
same,EC50,[4],> 120 µM (not active)
same,EC50,[5],48.1 µM (active)
same,EC50,[6],60.9 µM (active)
Cc1ccc(NC(=O)CCc2nc(O)c3ccccc3n2)cc1S(=O)(=O)N1CCOCC1,IC50,H9c2,> 79 µM (inactive)
NS(=O)(=O)c1cccc(NC(=O)COC(=O)Cc2nnc(O)c3ccccc23)c1,IC50,H9c2,> 79 µM (inactive)
Cc1ccc(C=NNc2nc3c(=O)n(C)c(=O)n(C)c3[nH]2)cc1,IC50,H9c2,> 79 µM (inactive)
COc1ccc2c(=O)cc(-c3ccccc3)oc2c1O,AC50,Cytochrome P450 3A4 [2],39.8 µM (inconclusive)
CC1=NNC(=O)C1CCC(=O)N/N=C\c1ccccc1[N+](=O)[O-] (configuration not stated),IC50,Leucine aminopeptidase,3.14 µM (active)
same,AC50,Cytochrome P450 3A4 [7],17.8 µM (inconclusive)
Cc1cc(=O)oc2c(O)c(O)ccc12 [4-METHYLDAPHNETIN],AC50,Cytochrome P450 3A4 [2],25.1 µM (inconclusive)
same,IC50,[8],25.9 µM (active)
CCCCN(CC)c1c([N+](=O)[O-])cc(C(F)(F)F)cc1[N+](=O)[O-] [BENFLURALIN],AC50,Cytochrome P450 3A4 [2],15.8 µM (inconclusive)
